Assay results published in US6713473B1, “Tricyclic compounds” (Meiji Seika Kaisha, Ltd., priority 1999, dated 2004).

Target: T1, human Y5 receptor (Homo sapiens, UniProt Q15761)
T1 sequence (Q15761 1-445): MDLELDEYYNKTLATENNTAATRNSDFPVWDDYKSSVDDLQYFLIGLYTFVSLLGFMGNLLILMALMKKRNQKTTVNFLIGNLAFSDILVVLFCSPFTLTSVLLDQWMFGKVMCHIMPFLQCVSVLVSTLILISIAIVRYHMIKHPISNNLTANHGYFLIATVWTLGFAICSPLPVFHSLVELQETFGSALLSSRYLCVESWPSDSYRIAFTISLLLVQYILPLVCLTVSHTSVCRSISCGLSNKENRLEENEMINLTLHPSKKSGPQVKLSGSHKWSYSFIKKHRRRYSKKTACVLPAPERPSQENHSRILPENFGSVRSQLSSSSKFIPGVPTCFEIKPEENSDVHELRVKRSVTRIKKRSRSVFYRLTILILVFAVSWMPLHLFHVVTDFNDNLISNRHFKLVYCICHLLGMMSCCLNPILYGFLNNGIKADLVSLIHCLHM
Experiment: Y5 receptor binding inhibition test
Conditions: 2 h, read-out: % Inhibition ratio (10 μM)

| SMILES | inhibition at 10 µM [%] |
| --- | --- |
| CCn1c2ccccc2c2cc(NC(=O)CCCCNS(=O)(=O)c3ccc4ccccc4c3)ccc21 [Compound 1-6] | 93 |
| CCn1c2ccccc2c2cc(NC(=O)CCCCCNS(=O)(=O)c3cccc4cccnc34)ccc21 [Compound 1-7] | 100 |
| CCn1c2ccccc2c2cc(NC(=O)CCCCCNC(=O)c3cccnc3)ccc21 [Compound 1-8] | 100 |
| CC(C)n1c2c(c3cc(NC(=O)CCCCCNS(=O)(=O)c4cccc5ccccc45)ccc31)CCCC2 [Compound 1-9] | 100 |
| CCn1c2ccccc2c2cc(C(=O)NCCCCCNS(C)(=O)=O)ccc21 [Compound 1-10] | 99 |
| CCCS(=O)(=O)NCCCCCNC(=O)c1ccc2c(c1)c1ccccc1n2CC [Compound 1-11] | 103 |
| CCCCCCCCS(=O)(=O)NCCCCCNC(=O)c1ccc2c(c1)c1ccccc1n2CC [Compound 1-12] | 77 |
| CCn1c2ccccc2c2cc(C(=O)NCCCCCNS(=O)(=O)C(C)C)ccc21 [Compound 1-13] | 109 |
| CCn1c2ccccc2c2cc(C(=O)NCCCCCNS(=O)(=O)c3ccccc3)ccc21 [Compound 1-15] | 111 |
| CCn1c2ccccc2c2cc(C(=O)NCCCCCNC(=O)C(C)C)ccc21 [Compound 1-18] | 88 |
| CCn1c2ccccc2c2cc(C(=O)NCCCCCNC(=O)C3CCCCC3)ccc21 [Compound 1-19] | 84 |
| CCn1c2ccccc2c2cc(C(=O)NCCCCCNC(=O)C34CC5CC(CC(C5)C3)C4)ccc21 [Compound 1-20] | 86 |
| CCn1c2ccccc2c2cc(C(=O)NCCCCCNC(=O)c3ccccc3)ccc21 [Compound 1-21] | 97 |
| CCn1c2ccccc2c2cc(C(=O)NCCCCCNC(=O)c3cccnc3)ccc21 [Compound 1-23] | 77 |
| CCn1c2ccccc2c2cc(C(=O)NCCCCCNS(=O)(=O)N(C)C)ccc21 [Compound 1-24] | 98 |
| CCn1c2ccccc2c2cc(C(=O)NCCCCCNC(=O)c3ccc4[nH]ccc4c3)ccc21 [Compound 1-25] | 100 |
| CCn1c2ccccc2c2cc(C(=O)NCCCCCNC(=O)c3ccc4[nH]nnc4c3)ccc21 [Compound 1-26] | 82 |

Now from value to molecule:

| inhibition at 10 µM [%] | SMILES |
| --- | --- |
| 95 | CCn1c2ccccc2c2cc(NC(=O)CCCCNS(=O)(=O)c3cccc4ccccc34)ccc21 [Compound 1-1] |
| 91 | CCn1c2ccccc2c2cc(NC(=O)CCCCCNS(=O)(=O)c3cccc4ccccc34)ccc21 [Compound 1-2] |
| 78 | CCn1c2ccccc2c2cc(NC(=O)CCCCCCCNS(=O)(=O)c3cccc4ccccc34)ccc21 [Compound 1-3] |
| 100 | CCn1c2ccccc2c2cc(NC(=O)CCNS(=O)(=O)c3cccc4ccccc34)ccc21 [Compound 1-4] |
| 98 | CCn1c2ccccc2c2cc(NC(=O)CCCNS(=O)(=O)c3cccc4ccccc34)ccc21 [Compound 1-5] |
| 106 | CCn1c2ccccc2c2cc(C(=O)NCCCCCNS(=O)(=O)c3ccc4ccccc4c3)ccc21 [Compound 1-14] |
| 94 | CCn1c2ccccc2c2cc(C(=O)NCCCCCNS(=O)(=O)c3cccc4cccnc34)ccc21 [Compound 1-16] |
| 93 | CCn1c2ccccc2c2cc(C(=O)NCCCCCNS(=O)(=O)c3cccc4c(N(C)C)cccc34)ccc21 [Compound 1-17] |
| 89 | CCn1c2ccccc2c2cc(C(=O)NCCCCCNC(=O)c3cccc4ccccc34)ccc21 [Compound 1-22] |
| 96 | CCn1c2ccccc2c2cc(C(=O)NCCSCCNS(=O)(=O)c3cccc4ccccc34)ccc21 [Compound 1-27] |
| 100 | CCn1c2ccccc2c2cc(C(=O)NCCOCCNS(=O)(=O)c3cccc4ccccc34)ccc21 [Compound 1-28] |
| 89 | CCn1c2ccccc2c2cc(C(=O)NCCNCCNS(=O)(=O)c3cccc4ccccc34)ccc21 [Compound 1-29] |
| 99 | CCn1c2ccccc2c2cc(C(=O)NCCN(C)CCNS(=O)(=O)c3cccc4ccccc34)ccc21 [Compound 1-30] |
